Measured values taken from patent US11498899B2, “Nitrone herbicides” (FMC Corporation, priority 2016, dated 2022).

Assays:
[1] = system: ducksalad (Heteranthera limosa); experiment: Test B flooded paddy test, visual rating 0-100; conditions: Flood, 250 g ai/ha, applied to paddy water, rated after 13 to 15 days
[2] = system: barnyardgrass (Echinochloa crus-galli); experiment: Test A preemergence, visual injury rating 0-100 (0 no effect, 100 complete control); format: in vivo; conditions: for Barnyardgrass plant response rating (0 to 100 scale): 125 g ai/ha; for Barnyardgrass plant response rating: 500 g ai/ha, 0 to 100 scale
rice (Oryza sativa) = experiment: Test B flooded paddy test, visual rating 0-100 (0 no effect, 100 complete control); conditions: Flood, 250 g ai/ha, applied to paddy water, rated after 13 to 15 days
[3] = system: barnyardgrass (Echinochloa crus-galli); experiment: Test B flooded paddy test, visual rating 0-100; conditions: Flood, 250 g ai/ha, applied to paddy water, rated after 13 to 15 days
[4] = system: galium (catchweed bedstraw, Galium aparine); experiment: Test A postemergence, visual injury rating 0-100; format: in vivo; conditions: 0 to 100 scale
[5] = system: foxtail, green (green foxtail, Setaria viridis); experiment: Test A postemergence, visual injury rating 0-100; format: in vivo; conditions: 0 to 100 scale
[6] = system: blackgrass (Alopecurus myosuroides); experiment: Test A postemergence, visual injury rating 0-100; format: in vivo; conditions: 0 to 100 scale
[7] = system: barnyardgrass (Echinochloa crus-galli); experiment: Test A postemergence, visual injury rating 0-100; format: in vivo; conditions: 0 to 100 scale
[8] = system: ragweed (common ragweed, Ambrosia elatior); experiment: Test A postemergence, visual injury rating 0-100; format: in vivo; conditions: 0 to 100 scale
corn (Zea mays) = experiment: Test A postemergence, visual injury rating 0-100; format: in vivo; conditions: 0 to 100 scale
[9] = system: wheat (Triticum aestivum); experiment: Test A postemergence, visual injury rating 0-100; format: in vivo; conditions: 0 to 100 scale
[10] = system: pigweed (Amaranthus retroflexus); experiment: Test A postemergence, visual injury rating 0-100; format: in vivo; conditions: 0 to 100 scale
kochia (Kochia scoparia) [11] = experiment: Test A postemergence, visual injury rating 0-100; format: in vivo; conditions: 0 to 100 scale
[12] = system: ryegrass, Italian (Italian ryegrass, Lolium multiflorum); experiment: Test A postemergence, visual injury rating 0-100; format: in vivo; conditions: 0 to 100 scale
[13] = system: foxtail, green (green foxtail, Setaria viridis); experiment: Test A preemergence, visual injury rating 0-100; format: in vivo; conditions: for Foxtail, Green plant response rating: 0 to 100 scale
[14] = system: ragweed (common ragweed, Ambrosia elatior); experiment: Test A preemergence, visual injury rating 0-100; format: in vivo; conditions: for Ragweed plant response rating: 0 to 100 scale
[15] = system: pigweed (Amaranthus retroflexus); experiment: Test A preemergence, visual injury rating 0-100; format: in vivo; conditions: for Pigweed plant response rating: 0 to 100 scale
kochia (Kochia scoparia) [16] = experiment: Test A preemergence, visual injury rating 0-100; format: in vivo; conditions: for Kochia plant response rating: 0 to 100 scale
[17] = system: ryegrass, Italian (Italian ryegrass, Lolium multiflorum); experiment: Test A preemergence, visual injury rating 0-100; format: in vivo; conditions: for Ryegrass, Italian plant response rating: 0 to 100 scale

Row | Structure (SMILES) | Ducksalad plant response rating (0 to 100 scale) [1] | Barnyardgrass plant response rating (0 to 100 scale) [2] | Barnyardgrass plant response rating [2] | Rice plant response rating (0 to 100 scale) (rice (Oryza sativa)) | Barnyardgrass plant response rating (0 to 100 scale) [3] | Galium plant response rating ([4]; 125 g ai/ha) | Galium plant response rating ([4]; 500 g ai/ha) | Foxtail, Green plant response rating ([5]; 125 g ai/ha) | Foxtail, Green plant response rating ([5]; 500 g ai/ha) | Blackgrass plant response rating ([6]; 125 g ai/ha) | Blackgrass plant response rating ([6]; 500 g ai/ha) | Barnyardgrass plant response rating ([7]; 125 g ai/ha) | Barnyardgrass plant response rating ([7]; 500 g ai/ha) | Ragweed plant response rating ([8]; 125 g ai/ha) | Ragweed plant response rating ([8]; 500 g ai/ha) | Corn plant response rating (corn (Zea mays); 125 g ai/ha) | Corn plant response rating (corn (Zea mays); 500 g ai/ha) | Wheat plant response rating ([9]; 125 g ai/ha) | Wheat plant response rating ([9]; 500 g ai/ha) | Pigweed plant response rating ([10]; 125 g ai/ha) | also measured
1 | CC1=[N+]([O-])C(C(=O)Nc2cccc(F)c2F)C(c2ccccc2)C1 (racemic) [Compound 16] | 100 | 100 | 100 | 0 | 85 | 0 | 30 | 10 | 80 | 0 | 0 | 80 | 90 | 0 | 20 | 0 | 0 | 0 | 0 | 0 | Pigweed plant response rating ([10]; 500 g ai/ha): 20; Kochia plant response rating (kochia (Kochia scoparia) [11]; 125 g ai/ha): 0; Kochia plant response rating (kochia (Kochia scoparia) [11]; 500 g ai/ha): 20; Ryegrass, Italian plant response rating ([12]; 125 g ai/ha): 0; Ryegrass, Italian plant response rating ([12]; 500 g ai/ha): 0; Foxtail, Green plant response rating (0 to 100 scale) ([13]; 125 g ai/ha): 100; Foxtail, Green plant response rating ([13]; 500 g ai/ha): 100; Ragweed plant response rating (0 to 100 scale) ([14]; 125 g ai/ha): 0; Ragweed plant response rating ([14]; 500 g ai/ha): 20; Pigweed plant response rating (0 to 100 scale) ([15]; 125 g ai/ha): 0; Pigweed plant response rating ([15]; 500 g ai/ha): 70; Kochia plant response rating (0 to 100 scale) (kochia (Kochia scoparia) [16]; 125 g ai/ha): 0; Kochia plant response rating (kochia (Kochia scoparia) [16]; 500 g ai/ha): 30; Ryegrass, Italian plant response rating (0 to 100 scale) ([17]; 125 g ai/ha): 0; Ryegrass, Italian plant response rating ([17]; 500 g ai/ha): 0
2 | CC1=[N+]([O-])[C@@H](C(=O)Nc2ccccc2F)[C@H](c2ccc(C(F)(F)F)cc2)C1 (relative stereo) [Compound 26, trans-N-(2-fluorophenyl)-3,4-dihydro-5-methyl-3-[4-(trifluoromethyl)phenyl]-2H-pyrrole-2-carboxamide 1-oxide] | 100 | 80 | 100 | 0 | 60 | 70 | 80 | 50 | 90 | 20 | 60 | 60 | 90 | 20 | 60 | 0 | 0 | 0 | 10 | 30 | Pigweed plant response rating ([10]; 500 g ai/ha): 80; Kochia plant response rating (kochia (Kochia scoparia) [11]; 125 g ai/ha): 0; Kochia plant response rating (kochia (Kochia scoparia) [11]; 500 g ai/ha): 10; Ryegrass, Italian plant response rating ([12]; 125 g ai/ha): 0; Ryegrass, Italian plant response rating ([12]; 500 g ai/ha): 20; Foxtail, Green plant response rating (0 to 100 scale) ([13]; 125 g ai/ha): 100; Foxtail, Green plant response rating ([13]; 500 g ai/ha): 100; Ragweed plant response rating (0 to 100 scale) ([14]; 125 g ai/ha): 80; Ragweed plant response rating ([14]; 500 g ai/ha): 90; Pigweed plant response rating (0 to 100 scale) ([15]; 125 g ai/ha): 70; Pigweed plant response rating ([15]; 500 g ai/ha): 90; Kochia plant response rating (0 to 100 scale) (kochia (Kochia scoparia) [16]; 125 g ai/ha): 50; Kochia plant response rating (kochia (Kochia scoparia) [16]; 500 g ai/ha): 90; Ryegrass, Italian plant response rating (0 to 100 scale) ([17]; 125 g ai/ha): 20; Ryegrass, Italian plant response rating ([17]; 500 g ai/ha): 70
3 | CC1=[N+]([O-])C(C(=O)Nc2ccccc2C#N)C(c2ccc(C(F)(F)F)cc2)C1 (racemic) [Compound 32] | 0 | 0 | 100 | 0 | 0 | 70 | 80 | 20 | 50 | 0 | 20 | 20 | 40 | 0 | 20 | 10 | 50 | 0 | 0 | 0 | Pigweed plant response rating ([10]; 500 g ai/ha): 20; Kochia plant response rating (kochia (Kochia scoparia) [11]; 125 g ai/ha): 0; Kochia plant response rating (kochia (Kochia scoparia) [11]; 500 g ai/ha): 20; Ryegrass, Italian plant response rating ([12]; 125 g ai/ha): 0; Ryegrass, Italian plant response rating ([12]; 500 g ai/ha): 0; Foxtail, Green plant response rating (0 to 100 scale) ([13]; 125 g ai/ha): 10; Foxtail, Green plant response rating (0 to 100 scale) ([13]; 500 g ai/ha): 100; Ragweed plant response rating (0 to 100 scale) ([14]; 125 g ai/ha): 70; Ragweed plant response rating (0 to 100 scale) ([14]; 500 g ai/ha): 100; Pigweed plant response rating (0 to 100 scale) ([15]; 125 g ai/ha): 0; Pigweed plant response rating (0 to 100 scale) ([15]; 500 g ai/ha): 80; Kochia plant response rating (0 to 100 scale) (kochia (Kochia scoparia) [16]; 125 g ai/ha): 0; Kochia plant response rating (0 to 100 scale) (kochia (Kochia scoparia) [16]; 500 g ai/ha): 70; Ryegrass, Italian plant response rating (0 to 100 scale) ([17]; 125 g ai/ha): 10; Ryegrass, Italian plant response rating (0 to 100 scale) ([17]; 500 g ai/ha): 10
4 | CC1=[N+]([O-])C(C(=O)Nc2ccccc2)C(c2ccc(F)c(F)c2)C1 (racemic) [Compound 17] | 40 | 0 | 20 | 0 | 0 | 0 | 0 | 20 | 20 | 0 | 0 | 0 | 0 | 0 | 0 | 0 | 20 | 0 | 0 | 0 | Pigweed plant response rating ([10]; 500 g ai/ha): 0; Kochia plant response rating (kochia (Kochia scoparia) [11]; 125 g ai/ha): 0; Kochia plant response rating (kochia (Kochia scoparia) [11]; 500 g ai/ha): 0; Ryegrass, Italian plant response rating ([12]; 125 g ai/ha): 0; Ryegrass, Italian plant response rating ([12]; 500 g ai/ha): 0; Foxtail, Green plant response rating (0 to 100 scale) ([13]; 125 g ai/ha): 0; Foxtail, Green plant response rating ([13]; 500 g ai/ha): 50; Ragweed plant response rating (0 to 100 scale) ([14]; 125 g ai/ha): 0; Ragweed plant response rating ([14]; 500 g ai/ha): 0; Pigweed plant response rating (0 to 100 scale) ([15]; 125 g ai/ha): 0; Pigweed plant response rating ([15]; 500 g ai/ha): 0; Kochia plant response rating (0 to 100 scale) (kochia (Kochia scoparia) [16]; 125 g ai/ha): 0; Kochia plant response rating (kochia (Kochia scoparia) [16]; 500 g ai/ha): 0; Ryegrass, Italian plant response rating (0 to 100 scale) ([17]; 125 g ai/ha): 0; Ryegrass, Italian plant response rating ([17]; 500 g ai/ha): 0
5 | CC1=[N+]([O-])C(C(=O)Nc2ccccc2C(F)(F)F)C(c2ccc(C(F)(F)F)cc2)C1 (racemic) [Compound 33] | 0 | 90 | 90 | 0 | 20 | 70 | 70 | 0 | 70 | 0 | 0 | 0 | 40 | 0 | 40 | 10 | 30 | 0 | 0 | 0 | Pigweed plant response rating ([10]; 500 g ai/ha): 20; Kochia plant response rating (kochia (Kochia scoparia) [11]; 125 g ai/ha): 0; Kochia plant response rating (kochia (Kochia scoparia) [11]; 500 g ai/ha): 0; Ryegrass, Italian plant response rating ([12]; 125 g ai/ha): 0; Ryegrass, Italian plant response rating ([12]; 500 g ai/ha): 0; Foxtail, Green plant response rating (0 to 100 scale) ([13]; 125 g ai/ha): 50; Foxtail, Green plant response rating (0 to 100 scale) ([13]; 500 g ai/ha): 100; Ragweed plant response rating (0 to 100 scale) ([14]; 125 g ai/ha): 70; Ragweed plant response rating (0 to 100 scale) ([14]; 500 g ai/ha): 80; Pigweed plant response rating (0 to 100 scale) ([15]; 125 g ai/ha): 0; Pigweed plant response rating (0 to 100 scale) ([15]; 500 g ai/ha): 50; Kochia plant response rating (0 to 100 scale) (kochia (Kochia scoparia) [16]; 125 g ai/ha): 0; Kochia plant response rating (0 to 100 scale) (kochia (Kochia scoparia) [16]; 500 g ai/ha): 70; Ryegrass, Italian plant response rating (0 to 100 scale) ([17]; 125 g ai/ha): 0; Ryegrass, Italian plant response rating (0 to 100 scale) ([17]; 500 g ai/ha): 20
